Reference: US8247370B2, “Conjoint therapy for treating fibrotic diseases” (Promedior, Inc., priority 2006, dated 2012)

Tested on: UUO-induced renal fibrosis
Experiment: UUO-induced renal fibrosis, Masson Trichrome staining of kidney sections with image analysis
Assay type: in vivo, Sprague Dawley rats
Conditions: rat UUO kidney, day 14; hSAP 2 mg/kg iv q2d days 0-12; enalapril 200 mg/L in drinking water; HSA control approximately 22%, uninjured kidney approximately 5%
Protocol: Unilateral Ureter Obstruction (UUO) in the rat is a suitable model of renal fibrosis'. Renal fibrosis was induced in Sprague Dawley rats weighing 200-250 grams. Rats were anesthetized with ketamine (100 mg/kg) and xylazine (5 mg/kg). All surgical procedures were conducted using aseptic techniques.
The left kidney, renal artery and vein were exposed and the ureter occluded using suture. The surgical site was then sutured closed.
Human serum albumin in PBS (group 1) or hSAP in PBS (groups 2-5) was given to animals by intravenous (iv) injection every other day from day 0 to day 12 as detailed in Table 4. Enalapril was be added to the drinking water of animals in groups 2, 5 and 6, beginning on the day of study and continuing until sacrifice (day 14).
On day 14, animals were sacrificed and both the left occluded and right contralateral control kidneys excised.
To determine the extent of fibrosis induced by 14 days of UUO, kidney sections from all groups of animals were stained with Masson Trichrome and the extent of Trichrome positivity determined using image analysis (see FIG. 1). […] However, there was a significant inhibition in Trichrome staining in the animals treated with the combination of enalapril and hSAP (p<0.05; approximately 10%). […]

| Compound | extent of Trichrome staining (collagen deposition in the kidney) |
| --- | --- |
| hSAP: human serum amyloid P, a pentraxin family protein that suppresses fibrocyte differentiation | approximately 25% |
| CCOC(=O)[C@H](CCc1ccccc1)N[C@@H](C)C(=O)N1CCC[C@H]1C(=O)O [enalapril] | approximately 15% |
